Laboratory results as given in ChEMBL document CHEMBL5126633, “Developing HDAC4-Selective Protein Degraders To Investigate the Role of HDAC4 in Huntington's Disease Pathology” (J Med Chem, 2022).
In brackets after ≈: the same amount, converted by molar mass. Activity calls are given as the source filed them. No cut-off for these calls is given here.

Assays:
Homo sapiens [1] = species on record: Homo sapiens; test: Selectivity ratio of IC50 for inhibition of HDAC4 (unknown origin) to IC50 for inhibition of HDAC9 (unknown origin)
Histone deacetylase 5 = Histone deacetylase 5 (Homo sapiens, UniProt Q9UQL6); test: Inhibition of recombinant HDAC5 (unknown origin) using Boc-Lys(TFA)-AMC as substrate by fluorescence based plate reader assay
Homo sapiens [2] = species on record: Homo sapiens; test: Selectivity ratio of IC50 for inhibition of HDAC4 (unknown origin) to IC50 for inhibition of HDAC5 (unknown origin)
[3] = target: T1, von Hippel-Lindau disease tumor suppressor/Histone deacetylase 4 (Homo sapiens, UniProt P40337+P56524); test: Protac activity at VHL/HDAC4 in human Jurkat E6.1 cells assessed as induction of HDAC4 degradation incubated for 24 hrs by immunoblotting analysis; assay type: cell-based
[4] = target: T2, von Hippel-Lindau disease tumor suppressor/Histone deacetylase 4 (Homo sapiens) (UniProt P56524+P40337); test: Protac activity at VHL/HDAC4 in human Jurkat E6.1 cells assessed as induction of HDAC4 degradation at 1 uM incubated for 6 hrs by immunoblotting analysis; assay type: cell-based
[5] = target: T1, von Hippel-Lindau disease tumor suppressor/Histone deacetylase 4; test: Protac activity at VHL/HDAC4 in human Jurkat E6.1 cells assessed as induction of HDAC4 degradation incubated for 24 hrs by ELISA-based MSD electrochemiluminescence assay; assay type: cell-based
[6] = Kinetic aqueous solubility of the compound in PBS buffer at pH 7.4 incubated for 2 hrs under shaking condition by LC-UV analysis; assay type: physicochemical; conditions: read-out: Kinetic_solubility
Histone deacetylase 9 = Histone deacetylase 9 (Homo sapiens, UniProt Q9UKV0)
[7] = Inhibition of class 2a HDAC in human Jurkat E6.1 cells using Boc-Lys(TFA)-AMC as substrate incubated for 24 hrs by plate reader assay; assay type: cell-based; conditions: Jurkat E6.1, 24 h
Histone deacetylase 4 = Histone deacetylase 4 (Homo sapiens, UniProt P56524); test: Inhibition of recombinant HDAC4 (unknown origin) using Boc-Lys(TFA)-AMC as substrate by fluorescence based plate reader assay
[8] = target: T2, von Hippel-Lindau disease tumor suppressor/Histone deacetylase 4 (Homo sapiens); test: Protac activity at VHL/HDAC4 in human Jurkat E6.1 cells assessed as induction of HDAC4 degradation by measuring maximum degradation at 10 uM incubated for 24 hrs by ELISA-based MSD electrochemiluminescence assay relative to control; assay type: cell-based
Homo sapiens [9] = species on record: Homo sapiens; test: Selectivity ratio of IC50 for inhibition of HDAC4 (unknown origin) to IC50 for inhibition of HDAC7 (unknown origin)
Histone deacetylase 7 = target: T3, Histone deacetylase 7 (Homo sapiens, UniProt Q8WUI4); test: Inhibition of recombinant HDAC7 (unknown origin) using Boc-Lys(TFA)-AMC as substrate by fluorescence based plate reader assay
T3 sequence (Q8WUI4 whole entry): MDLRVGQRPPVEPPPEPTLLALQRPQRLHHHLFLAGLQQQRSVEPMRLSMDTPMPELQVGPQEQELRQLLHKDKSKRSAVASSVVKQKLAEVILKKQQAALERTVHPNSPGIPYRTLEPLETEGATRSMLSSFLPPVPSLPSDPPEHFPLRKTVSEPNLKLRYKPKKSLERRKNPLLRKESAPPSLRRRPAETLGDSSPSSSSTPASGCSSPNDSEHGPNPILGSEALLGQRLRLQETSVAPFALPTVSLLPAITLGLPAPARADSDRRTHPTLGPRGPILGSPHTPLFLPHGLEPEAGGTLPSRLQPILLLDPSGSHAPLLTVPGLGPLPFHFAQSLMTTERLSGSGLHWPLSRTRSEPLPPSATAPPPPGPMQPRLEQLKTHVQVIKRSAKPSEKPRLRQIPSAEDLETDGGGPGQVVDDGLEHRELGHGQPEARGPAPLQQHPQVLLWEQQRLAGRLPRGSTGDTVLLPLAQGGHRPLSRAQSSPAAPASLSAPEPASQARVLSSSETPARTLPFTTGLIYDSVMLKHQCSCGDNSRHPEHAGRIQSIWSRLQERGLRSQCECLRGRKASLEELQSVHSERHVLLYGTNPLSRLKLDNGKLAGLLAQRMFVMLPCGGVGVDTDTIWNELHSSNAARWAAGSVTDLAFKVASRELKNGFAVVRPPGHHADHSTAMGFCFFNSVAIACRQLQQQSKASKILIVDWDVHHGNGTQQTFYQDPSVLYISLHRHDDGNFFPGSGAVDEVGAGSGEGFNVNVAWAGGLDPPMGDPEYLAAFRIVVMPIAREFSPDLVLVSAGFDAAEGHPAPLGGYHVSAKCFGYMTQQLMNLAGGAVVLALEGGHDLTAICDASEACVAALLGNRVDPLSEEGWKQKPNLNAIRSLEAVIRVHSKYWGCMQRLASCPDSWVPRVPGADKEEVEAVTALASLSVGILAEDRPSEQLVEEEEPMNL

[10] = target: Class 1 histone deacetylase (Homo sapiens, UniProt Q13547+O15379+Q92769+Q9BY41); test: Inhibition of class 1 HDAC in human Jurkat E6.1 cells using Boc-Lys(Ac)-AMC as substrate incubated for 24 hrs by plate reader assay; assay type: cell-based
Vhl/Hdac4 [11] = target: T4, Vhl/Hdac4 (Mus musculus, UniProt P40338+Q6NZM9); test: Protac activity at VHL/HDAC4 in mouse Neuro2a cells assessed as induction of HDAC4 degradation preincubated with elacridar for 1 hr followed by compound addition and measured after 24 hrs by MSD assay
[12] = target: T1, von Hippel-Lindau disease tumor suppressor/Histone deacetylase 4; test: Protac activity at VHL/HDAC4 in human Jurkat E6.1 cells assessed as induction of HDAC4 degradation incubated for 24 hrs in absence of elacridar by Western blot analysis; assay type: cell-based
[13] = Efflux ratio of apparent permeability basolateral to apical over apical to basolateral side in MDCK-MDR1 cells; assay type: ADME, cell-based, Canis lupus familiaris; conditions: dog
[14] = Apparent permeability in MDCK-MDR1 cells; assay type: ADME, cell-based, Canis lupus familiaris; conditions: dog
[15] = target: T1, von Hippel-Lindau disease tumor suppressor/Histone deacetylase 4; test: Protac activity at VHL/HDAC4 in human Jurkat E6.1 cells assessed as induction of HDAC4 degradation preincubated with elacridar for 1 hr followed by compound addition and measured after 24 hrs by Western blot analysis; assay type: cell-based
[16] = Apparent permeability in MDCK-BCRP cells; assay type: ADME, cell-based, Canis lupus familiaris; conditions: dog
[17] = Apparent permeability in MDCK cells; assay type: ADME, cell-based, Canis lupus familiaris; conditions: dog
[18] = Efflux ratio of apparent permeability basolateral to apical over apical to basolateral side in MDCK-BCRP cells; assay type: ADME, cell-based, Canis lupus familiaris; conditions: dog
[19] = Selectivity ratio of DC50 for protac activity at VHL/HDAC4 in mouse Neuro2a cells to DC50 for protac activity at VHL/HDAC4 in human Jurkat E6.1 cells; assay type: cell-based
Vhl/Hdac4 [20] = target: T4, Vhl/Hdac4; test: Protac activity at VHL/HDAC4 in mouse Neuro2a cells assessed as induction of HDAC4 degradation incubated for 24 hrs in absence of elacridar by MSD assay
[21] = Efflux ratio of apparent permeability basolateral to apical over apical to basolateral side in MDCK cells; assay type: ADME, cell-based, Canis lupus familiaris; conditions: dog
Vhl/Hdac4 [22] = target: T4, Vhl/Hdac4; test: Protac activity at VHL/HDAC4 in Q175 KI mouse cortical neuron assessed as induction of HDAC4 degradation incubated for 4 to 72 hrs in absence of elacridar by MSD assay; assay type: cell-based

Histone deacetylase 5, sequence (Q9UQL6 whole entry): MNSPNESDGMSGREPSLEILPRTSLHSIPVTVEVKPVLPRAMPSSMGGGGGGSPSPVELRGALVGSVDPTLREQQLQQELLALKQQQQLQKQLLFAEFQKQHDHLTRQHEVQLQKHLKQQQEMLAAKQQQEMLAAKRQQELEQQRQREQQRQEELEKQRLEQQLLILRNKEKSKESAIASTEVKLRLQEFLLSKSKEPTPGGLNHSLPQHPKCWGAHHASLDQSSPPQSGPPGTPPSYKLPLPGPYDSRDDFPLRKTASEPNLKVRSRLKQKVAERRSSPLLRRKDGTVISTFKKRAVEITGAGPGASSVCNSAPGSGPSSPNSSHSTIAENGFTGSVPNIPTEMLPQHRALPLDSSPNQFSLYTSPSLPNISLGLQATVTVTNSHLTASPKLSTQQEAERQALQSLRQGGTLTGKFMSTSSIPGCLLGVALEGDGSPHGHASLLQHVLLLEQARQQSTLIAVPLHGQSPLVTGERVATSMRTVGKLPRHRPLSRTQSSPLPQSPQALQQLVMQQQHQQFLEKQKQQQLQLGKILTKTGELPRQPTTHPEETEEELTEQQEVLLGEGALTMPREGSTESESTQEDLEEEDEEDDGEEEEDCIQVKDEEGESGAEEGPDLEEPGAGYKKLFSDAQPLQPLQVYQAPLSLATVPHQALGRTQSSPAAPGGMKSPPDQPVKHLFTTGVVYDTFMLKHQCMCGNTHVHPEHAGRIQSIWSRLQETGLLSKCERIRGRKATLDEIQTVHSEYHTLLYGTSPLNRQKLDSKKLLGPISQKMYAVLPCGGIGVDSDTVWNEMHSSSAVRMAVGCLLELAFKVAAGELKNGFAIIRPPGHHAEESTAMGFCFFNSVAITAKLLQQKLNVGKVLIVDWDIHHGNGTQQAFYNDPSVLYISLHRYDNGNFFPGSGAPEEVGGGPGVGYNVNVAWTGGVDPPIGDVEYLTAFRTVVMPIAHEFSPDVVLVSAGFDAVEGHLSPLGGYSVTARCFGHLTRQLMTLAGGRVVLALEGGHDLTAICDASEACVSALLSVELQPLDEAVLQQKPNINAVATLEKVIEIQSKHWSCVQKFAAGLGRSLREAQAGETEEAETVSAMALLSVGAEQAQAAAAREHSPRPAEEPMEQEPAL
T4 sequence (Q6NZM9 whole entry): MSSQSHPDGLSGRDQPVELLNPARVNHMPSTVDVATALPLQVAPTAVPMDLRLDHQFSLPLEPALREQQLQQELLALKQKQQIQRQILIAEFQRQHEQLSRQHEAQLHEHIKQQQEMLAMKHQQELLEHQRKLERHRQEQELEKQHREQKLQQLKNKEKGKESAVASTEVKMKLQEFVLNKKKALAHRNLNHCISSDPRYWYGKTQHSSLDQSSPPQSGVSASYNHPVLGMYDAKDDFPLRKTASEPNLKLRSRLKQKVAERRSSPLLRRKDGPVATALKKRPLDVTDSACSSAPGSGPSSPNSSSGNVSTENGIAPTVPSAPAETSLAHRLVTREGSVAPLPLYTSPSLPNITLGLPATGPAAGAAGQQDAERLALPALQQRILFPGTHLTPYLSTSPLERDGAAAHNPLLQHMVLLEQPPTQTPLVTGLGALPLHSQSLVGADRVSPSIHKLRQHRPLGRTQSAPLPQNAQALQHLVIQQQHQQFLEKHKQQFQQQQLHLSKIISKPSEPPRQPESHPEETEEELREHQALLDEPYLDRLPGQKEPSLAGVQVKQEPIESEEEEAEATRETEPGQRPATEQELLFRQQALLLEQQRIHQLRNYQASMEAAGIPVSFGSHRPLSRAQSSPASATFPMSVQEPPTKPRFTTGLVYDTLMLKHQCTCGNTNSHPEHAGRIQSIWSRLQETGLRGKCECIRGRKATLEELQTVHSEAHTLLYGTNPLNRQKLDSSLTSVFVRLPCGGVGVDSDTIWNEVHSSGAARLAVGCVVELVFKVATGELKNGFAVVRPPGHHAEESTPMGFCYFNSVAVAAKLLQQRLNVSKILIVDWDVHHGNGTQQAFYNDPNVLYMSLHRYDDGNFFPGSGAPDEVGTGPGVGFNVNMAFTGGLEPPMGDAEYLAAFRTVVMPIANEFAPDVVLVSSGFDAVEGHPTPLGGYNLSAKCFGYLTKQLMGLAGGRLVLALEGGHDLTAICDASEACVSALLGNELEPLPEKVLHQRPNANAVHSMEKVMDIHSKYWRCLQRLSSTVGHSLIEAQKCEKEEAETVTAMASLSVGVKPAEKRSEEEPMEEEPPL
T4 sequence (P40338 whole entry): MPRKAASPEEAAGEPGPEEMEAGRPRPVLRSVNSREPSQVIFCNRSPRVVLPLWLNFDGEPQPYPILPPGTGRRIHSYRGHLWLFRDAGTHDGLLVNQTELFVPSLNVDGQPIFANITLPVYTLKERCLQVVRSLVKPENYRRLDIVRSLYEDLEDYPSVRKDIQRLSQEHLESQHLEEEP
Histone deacetylase 9, sequence (Q9UKV0 whole entry): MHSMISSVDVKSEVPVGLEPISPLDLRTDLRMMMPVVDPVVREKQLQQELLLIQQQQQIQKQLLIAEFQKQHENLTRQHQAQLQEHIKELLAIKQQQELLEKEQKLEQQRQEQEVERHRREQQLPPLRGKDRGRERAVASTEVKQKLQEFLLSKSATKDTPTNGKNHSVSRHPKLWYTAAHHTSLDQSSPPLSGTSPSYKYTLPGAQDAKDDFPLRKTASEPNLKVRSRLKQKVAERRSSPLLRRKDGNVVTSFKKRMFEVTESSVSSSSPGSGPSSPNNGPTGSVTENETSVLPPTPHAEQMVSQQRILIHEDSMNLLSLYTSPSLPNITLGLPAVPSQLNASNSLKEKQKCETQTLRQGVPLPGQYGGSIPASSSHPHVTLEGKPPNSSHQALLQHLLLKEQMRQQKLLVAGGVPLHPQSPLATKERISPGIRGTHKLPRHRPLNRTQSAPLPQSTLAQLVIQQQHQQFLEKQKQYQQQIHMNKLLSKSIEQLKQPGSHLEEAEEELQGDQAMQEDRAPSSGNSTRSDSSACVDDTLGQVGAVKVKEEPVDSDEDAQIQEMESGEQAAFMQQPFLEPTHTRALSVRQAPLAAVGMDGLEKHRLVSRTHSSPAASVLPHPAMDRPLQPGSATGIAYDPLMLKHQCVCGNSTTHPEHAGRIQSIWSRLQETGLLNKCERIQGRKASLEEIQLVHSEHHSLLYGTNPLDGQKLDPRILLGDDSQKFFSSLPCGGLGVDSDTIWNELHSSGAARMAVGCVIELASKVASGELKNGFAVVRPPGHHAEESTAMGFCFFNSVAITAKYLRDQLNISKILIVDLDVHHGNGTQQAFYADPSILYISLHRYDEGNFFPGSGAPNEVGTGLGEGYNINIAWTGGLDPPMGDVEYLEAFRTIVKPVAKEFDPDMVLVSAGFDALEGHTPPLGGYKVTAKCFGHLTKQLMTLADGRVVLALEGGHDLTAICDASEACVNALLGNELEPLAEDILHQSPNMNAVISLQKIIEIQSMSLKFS
T1 sequence (P56524 whole entry): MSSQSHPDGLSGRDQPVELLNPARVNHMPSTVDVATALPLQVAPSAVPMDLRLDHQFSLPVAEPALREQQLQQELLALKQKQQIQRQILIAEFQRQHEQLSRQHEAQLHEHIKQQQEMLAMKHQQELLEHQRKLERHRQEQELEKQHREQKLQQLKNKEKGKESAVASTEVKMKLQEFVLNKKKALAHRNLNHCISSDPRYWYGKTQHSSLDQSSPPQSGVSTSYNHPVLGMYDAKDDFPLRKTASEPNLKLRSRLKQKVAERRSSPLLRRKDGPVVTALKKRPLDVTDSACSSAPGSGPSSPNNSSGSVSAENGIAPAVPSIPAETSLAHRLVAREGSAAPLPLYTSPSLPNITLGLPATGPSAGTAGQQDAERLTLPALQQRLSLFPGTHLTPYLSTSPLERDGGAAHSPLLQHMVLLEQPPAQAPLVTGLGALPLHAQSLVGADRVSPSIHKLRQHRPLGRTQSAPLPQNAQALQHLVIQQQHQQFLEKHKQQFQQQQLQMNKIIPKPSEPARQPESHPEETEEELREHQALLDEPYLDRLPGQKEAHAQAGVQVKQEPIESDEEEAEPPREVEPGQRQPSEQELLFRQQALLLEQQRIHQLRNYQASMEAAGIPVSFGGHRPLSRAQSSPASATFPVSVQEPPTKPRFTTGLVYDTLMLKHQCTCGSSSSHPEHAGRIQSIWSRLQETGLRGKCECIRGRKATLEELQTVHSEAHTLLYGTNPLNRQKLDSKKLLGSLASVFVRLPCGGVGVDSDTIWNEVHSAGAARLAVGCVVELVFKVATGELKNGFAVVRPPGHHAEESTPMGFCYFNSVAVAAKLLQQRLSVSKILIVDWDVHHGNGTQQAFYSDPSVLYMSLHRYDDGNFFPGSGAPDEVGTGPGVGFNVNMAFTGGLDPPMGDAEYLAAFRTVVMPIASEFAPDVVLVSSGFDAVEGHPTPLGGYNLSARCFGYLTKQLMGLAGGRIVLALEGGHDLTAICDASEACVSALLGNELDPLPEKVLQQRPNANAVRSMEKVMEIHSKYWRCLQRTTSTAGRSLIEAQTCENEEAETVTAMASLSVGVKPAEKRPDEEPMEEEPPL
T1 sequence (P40337 whole entry): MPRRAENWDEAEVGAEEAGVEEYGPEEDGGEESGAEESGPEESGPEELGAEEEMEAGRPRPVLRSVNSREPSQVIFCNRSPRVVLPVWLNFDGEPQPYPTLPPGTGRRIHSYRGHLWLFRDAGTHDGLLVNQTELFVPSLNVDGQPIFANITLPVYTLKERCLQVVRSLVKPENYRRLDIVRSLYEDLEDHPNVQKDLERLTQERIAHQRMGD
Histone deacetylase 4, sequence (P56524 whole entry): as the sequence (P56524 whole entry) above
T2 sequence (P40337 whole entry, looked up): as the sequence (P40337 whole entry) above
T2 sequence (P56524 whole entry, looked up): as the sequence (P56524 whole entry) above

Row | IC50 (Histone deacetylase 5) [nM] | EC50 [5] [nM] | solubility kinetic at 2 h [6] [µM] | IC50 (Histone deacetylase 9) [nM] | IC50 [7] [nM] | IC50 (Histone deacetylase 4) [nM] | Emax [8] [%] | IC50 (Histone deacetylase 7) [nM] | IC50 [10] [nM] | Compound | also measured
1 | 260 | 37 | 4.8 (≈ 5.04 µg/mL) | 420 | 120 | 1100 | 83 | 250 | > 5000 | Cc1ncsc1-c1ccc(CNC(=O)[C@@H]2C[C@@H](O)CN2C(=O)[C@@H](NC(=O)COCCOCCOCCOCCOCC(F)(F)c2cnc(-c3ccc(C(C(=O)NO)c4ccccc4F)cc3)nc2)C(C)(C)C)cc1 (some centres undefined) | Ratio IC50 (Homo sapiens [1]): 3; Ratio IC50 (Homo sapiens [2]): 3; EC50 [3]: 11 nM; Activity [4]: Active; Ratio IC50 (Homo sapiens [9]): 3
2 | – | > 10000 | 4.8 (≈ 5.04 µg/mL) | – | 130 | 230 | 20 | – | > 5000 | Cc1ncsc1-c1ccc(CNC(=O)[C@@H]2C[C@H](O)CN2C(=O)[C@@H](NC(=O)COCCOCCOCCOCCOCC(F)(F)c2cnc(-c3ccc(C(C(=O)NO)c4ccccc4F)cc3)nc2)C(C)(C)C)cc1 (some centres undefined) | –
3 | 310 | 48 | 5 (≈ 5.03 µg/mL) | 340 | 160 | 560 | 82 | 210 | > 5000 | Cc1ncsc1-c1ccc(CNC(=O)[C@@H]2C[C@@H](O)CN2C(=O)[C@@H](NC(=O)COCCOCCOCCOCC(F)(F)c2cnc(-c3ccc(C(C(=O)NO)c4ccccc4F)cc3)nc2)C(C)(C)C)cc1 (some centres undefined) | –
4 | 250 | 4 | 132 (≈ 136 µg/mL) | 220 | 2 | 100 | 85 | 230 | 2800 | CCCN(CCCCOCCOCCOCCOCC(=O)N[C@H](C(=O)N1C[C@H](O)C[C@H]1C(=O)NCc1ccc(-c2scnc2C)cc1)C(C)(C)C)C[C@@H](C)NC(=O)c1ccc(-c2noc(C(F)(F)F)n2)cc1 | –
5 | – | > 10000 | – | – | 180 | 150 | 50 | – | > 5000 | CCCN(CCCCOCCOCCOCCOCCOCC(=O)N[C@@H](C(=O)N1C[C@@H](O)C[C@@H]1C(=O)NCc1ccc(-c2scnc2C)cc1)C(C)(C)C)C[C@@H](C)NC(=O)c1ccc(-c2noc(C(F)(F)F)n2)cc1 | –
6 | 150 | 4 | 144 (≈ 155 µg/mL) | 94 | 6 | 92 | 78 | 150 | > 5000 | CCCN(CCCCOCCOCCOCCOCCOCC(=O)N[C@H](C(=O)N1C[C@H](O)C[C@H]1C(=O)NCc1ccc(-c2scnc2C)cc1)C(C)(C)C)C[C@@H](C)NC(=O)c1ccc(-c2noc(C(F)(F)F)n2)cc1 | EC50 (Vhl/Hdac4 [11]): 2.3 nM; EC50 [12]: 1.7 nM; EC50 [3]: 2 nM; Ratio [13]: 7; Papp [14]: 2.6 ×10⁻⁶ cm/s; EC50 [15]: 1.6 nM; Papp [16]: 1.4 ×10⁻⁶ cm/s; Papp [17]: 2.1 ×10⁻⁶ cm/s; Ratio [18]: 5; Ratio EC50 [19]: 20; EC50 (Vhl/Hdac4 [20]): 81 nM; Ratio [21]: 13; EC50 (Vhl/Hdac4 [22]): 1.1 nM
7 | – | – | 145 (≈ 57.8 µg/mL) | – | – | – | – | – | – | CCCN(CCC)C[C@@H](C)NC(=O)c1ccc(-c2noc(C(F)(F)F)n2)cc1 | –

Row | Compound | IC50 (Histone deacetylase 5) [nM] | EC50 [5] [nM] | solubility kinetic at 2 h [6] [µM] | IC50 (Histone deacetylase 9) [nM] | IC50 [7] [nM] | IC50 (Histone deacetylase 4) [nM] | Emax [8] [%] | IC50 (Histone deacetylase 7) [nM] | IC50 [10] [nM] | also measured
8 | Cc1ncsc1-c1ccc(CNC(=O)[C@@H]2C[C@@H](O)CN2C(=O)[C@@H](NC(=O)COCCOCCOCC(F)(F)c2cnc(-c3ccc(C(C(=O)NO)c4ccccc4F)cc3)nc2)C(C)(C)C)cc1 (mixture of isomers) | 230 | 28 | 5.2 | 290 | 150 | 410 | 77 | 210 | > 5000 | –
9 | CCCN(CCCCOCCOCCOCC(=O)N[C@H](C(=O)N1C[C@H](O)C[C@H]1C(=O)NCc1ccc(-c2scnc2C)cc1)C(C)(C)C)C[C@@H](C)NC(=O)c1ccc(-c2noc(C(F)(F)F)n2)cc1 | 140 | 3 | 100 (≈ 98.7 µg/mL) | 130 | 33 | 90 | 72 | 220 | 4300 | –
